In one assay the test system is CCFT-CEM cells. Nature of the assay: Cytotoxicity against CCFT-CEM cells. To be noted: read-out: IC50, cytotoxicity against CCFT-CEM cells.
In another assay the test system is SKBr3 cells. Nature of the assay: Cytotoxicity against SKBr3 cells (CellTiter-Glo, 72 h). The format is cell-based. The settings on record: Homo sapiens, SK-BR-3, 72 h, read-out: Cytotoxicity against SKBr3 Cells (IC50, μM). How it is done:
Cytotoxicity was determined with SKBr3 cells (ATCC HTB-30), a breast cancer cell line. […] Cells were plated into 96-well microtiter back plates at 4,000 cells per 50μL per well, overnight. Serial 10x dilutions of test compound (10 μM to 0.1 pM) in cell culture media were prepared with a Biomek 2000 apparatus, using the protocols of deeper-1000 μL-media and deeper-1000 μL-dilution. 50 μL of each dilution was added to wells containing cells. Each compound or control (medium only) was tested in duplicate. For each assay, the wells contained a final volume of 100 μL (50 μL of cells and 50 μL of compound dilution). […] CellTiter-Glo Luminescent Reagent (Promega #G7573) (100 μL) was added to each well. The well contents were mixed for 5 min and the plates were kept at room temperature for another 30 min. Luminescence was recorded using a Wallac VICTOR^2 Multilabel Counter (PerkinElmer) and IC50 values were determined using Kaleidagraph software (Synergy Software).
Background: In ATP-based viability assays light output follows the ATP content of the culture.

A further assay has as its target Hsp90 (Homo sapiens, UniProt P07900). Nature of the assay: Hsp90 filter binding assay.

As usually defined, the IC50 is the concentration that gives 50% inhibition. For orientation: Kd means the equilibrium constant for the complex coming apart. Higher therefore signals weaker binding.

As to `CO[C@H]1C[C@H](C)Cc2cc(O)cc(c2)NC(=O)/C=C/CC[C@H](OC)[C@@H](OC(N)=O)/C(C)=C/[C@H](C)[C@H]1O` [Compound 1-A], the IC50 was determined as 2500 nM with CCFT-CEM cells and 0.85 µM in the assay on SKBr3 cells. Further, binding at Hsp90 was characterised by a dissociation constant (Kd) of 17 nM.
Regarding `C=CCOc1cc2cc(c1)NC(=O)C=CCCC(OC)C(OC(N)=O)C(C)=CC(C)C(O)C(OC)CC(C)C2` (centres unmarked) [Compound 1-B], the IC50 in the assay on SKBr3 cells is over 5 µM. At Hsp90, binding was characterised by a dissociation constant (Kd) of 1000 nM.
As to `COC1CCC=CC(=O)Nc2cc(cc(OCCN(C)C)c2)CC(C)CC(OC)C(O)C(C)C=C(C)C1OC(N)=O` (centres unmarked) [Compound 1-C], the IC50 in the assay with SKBr3 cells is over 10 µM. The same molecule returned a Kd on Hsp90 of 230 nM.
For the molecule `COc1cc2cc(c1)NC(=O)C=CCCC(OC)C(OC(N)=O)C(C)=CC(C)C(O)C(OC)CC(C)C2` (centres unmarked) [Compound 1-D], the IC50 in the assay with SKBr3 cells was determined as 6 µM. The molecule also registered a Kd at Hsp90 of 510 nM.
As to `COC1CCC=CC(=O)Nc2cc(cc(OCC(N)=O)c2)CC(C)CC(OC)C(O)C(C)C=C(C)C1OC(N)=O` (centres unmarked) [Compound 1-E], the 50% inhibitory concentration (IC50) with SKBr3 cells was over 5 µM. At Hsp90, this molecule yielded a Kd of 440 nM.
The matching figures for `COC1CCC=CC(=O)Nc2cc(cc(O)c2CN(C)C)CC(C)CC(OC)C(O)C(C)C=C(C)C1OC(N)=O` (centres unmarked) [Compound 1-F]: 0.63 µM and 200 nM.
For `COC1CCC=CC(=O)Nc2cc(cc(O)c2CN2CCOCC2)CC(C)CC(OC)C(O)C(C)C=C(C)C1OC(N)=O` (centres unmarked) [Compound 1-G] the same measures were over 5 µM and 640 nM.
With `COC(=O)COc1cc2cc(c1)NC(=O)C=CCCC(OC)C(OC(N)=O)C(C)=CC(C)C(O)C(OC)CC(C)C2` (centres unmarked) [Compound 1-H], in the assay with SKBr3 cells, the IC50 was over 5 µM. In addition, the affinity at Hsp90, expressed as Kd, was 360 nM.
On to `COC1CCC=CC(=O)Nc2cc(cc(OCC(=O)O)c2)CC(C)CC(OC)C(O)C(C)C=C(C)C1OC(N)=O` (centres unmarked) [Compound 1-I], for which, in the assay with SKBr3 cells, the IC50 is over 5 µM. Besides, binding at Hsp90 was characterised by a dissociation constant (Kd) of 930 nM.
The matching figures for `COC1CCC=CC(=O)Nc2cc(cc(O)c2Br)CC(C)CC(OC)C(O)C(C)C=C(C)C1OC(N)=O` (centres unmarked) [Compound 1-J]: over 5 µM and 1700 nM.
For `COC1CCC=CC(=O)Nc2cc(O)c(Br)c(c2)CC(C)CC(OC)C(O)C(C)C=C(C)C1OC(N)=O` (centres unmarked) [Compound 1-K] the same measures were 0.8 µM and 140 nM.
As for `COC1CCC=CC(=O)Nc2cc(c(Br)c(O)c2Br)CC(C)CC(OC)C(O)C(C)C=C(C)C1OC(N)=O` (centres unmarked) [Compound 1-M], the IC50 in the assay with SKBr3 cells is over 5 µM. The same molecule had a dissociation constant (Kd) on Hsp90 of 5900 nM.
For `COC1CCC=CC(=O)Nc2cc(c(CN(C)CCN(C)C)c(O)c2Br)CC(C)CC(OC)C(O)C(C)C=C(C)C1OC(N)=O` (centres unmarked) [Compound 1-N] the same measures were over 5 µM and 31000 nM.
For the molecule `COC1=C2C[C@@H](C)C[C@H](OC)[C@H](O)[C@@H](C)/C=C(\C)[C@H](OC(N)=O)[C@@H](OC)/C=C\C=C(/C)C(=O)NC(=CC1=O)C2=O` [Geldanamycin, reference compound], the half-maximal inhibitory concentration (IC50) in the assay on SKBr3 cells amounted to 0.023 µM.
Regarding `CO[C@H]1C[C@H](C)Cc2cc(O)cc(c2)NC(=O)CC(O)CC[C@H](OC)[C@@H](OC(N)=O)/C(C)=C/[C@H](C)[C@H]1O` (some centres unmarked) [III], the IC50 in the assay with SKBr3 cells was over 5 µM. Further, the dissociation constant (Kd) at Hsp90 is 1000 nM.
For `CO[C@H]1C[C@H](C)Cc2cc(O)cc(c2)NC(=O)CC(O)CC[C@H](OC)[C@@H](O)/C(C)=C/[C@H](C)[C@H]1O` (some centres unmarked) [IV], the IC50 in the assay with SKBr3 cells was over 5 µM. This molecule also returned an equilibrium dissociation constant (Kd) on Hsp90 of 17000 nM.

Values taken from US7241754B2, “2-Desmethyl ansamycin compounds” (priority 2003, dated 2007).
